One may read the IC50 as the concentration at which inhibition is half-maximal.

Experimental findings from patent US9493432B2, “Cyclopentylbenzamide derivatives and their use for the treatment of psychotic and cognitive disorders” (Takeda Pharmaceutical Company Limited, priority 2013, dated 2016) are described below.

Assay [1] concerns the target human orexin receptor 2 (Homo sapiens (Human), UniProt O43614). Briefly: Orexin antagonist activity, intracellular calcium FLIPR assay (orexin receptor 2). The assay is classed as cell-based. Conditions: RBL-2H3 cells stably expressing human orexin receptor 2; Ca2+ dye FLIPR; compound 15 minutes before orexin-A at approximately 80% maximal response; read-out: Human Orexin2R IC50. As for the experimental part:
(§1) Orexin antagonist activity was determined by measuring changes in intracellular calcium levels using a Ca^2+ sensitive fluorescent dye. The changes in fluorescent signal were monitored by Fluorescent Imaging Plate Reader (FLIPR™) technology available from Molecular Devices, LLC, U.S.A. Orexin mediated increases in intracellular Ca^2+ concentration were readily detected upon activation with orexin-A. Twenty-four hours prior to the assay, RBL-2H3 cells stably expressing either human orexin receptor 1 or human orexin receptor 2 were seeded in cell culture medium in black, clear-bottom 384-well plates (commercially available from Corning Inc., U.S.A.) and grown overnight at 37° C., 5% CO2. On the day of the assay, cell culture media was removed and cells were loaded with Calcium 5 Dye (commercially sold by Molecular Devices, LLC, U.S.A.) for 1 hour at 37° C., 5% CO2. Test compounds (at 10 point half log concentration response curves from 10 μM) were added to cells for 15 minutes prior to the addition of orexin-A to all wells, to achieve a final concentration that produces approximately an 80% maximal response. The IC50 values were determined from ten point concentration response curves. Curves were generated using the average of two wells for each data point.

The target of assay [2] is human orexin receptor 1 (Homo sapiens (Human), UniProt O43613). Put plainly: Orexin antagonist activity, intracellular calcium FLIPR assay (orexin receptor 1). As to conditions: RBL-2H3 cells stably expressing human orexin receptor 1; Ca2+ dye FLIPR; compound 15 minutes before orexin-A at approximately 80% maximal response; read-out: Human Orexin1R IC50. The assay is classed as cell-based. As for the experimental part: as §1
Sequence of human orexin receptor 1 (O43613 whole entry): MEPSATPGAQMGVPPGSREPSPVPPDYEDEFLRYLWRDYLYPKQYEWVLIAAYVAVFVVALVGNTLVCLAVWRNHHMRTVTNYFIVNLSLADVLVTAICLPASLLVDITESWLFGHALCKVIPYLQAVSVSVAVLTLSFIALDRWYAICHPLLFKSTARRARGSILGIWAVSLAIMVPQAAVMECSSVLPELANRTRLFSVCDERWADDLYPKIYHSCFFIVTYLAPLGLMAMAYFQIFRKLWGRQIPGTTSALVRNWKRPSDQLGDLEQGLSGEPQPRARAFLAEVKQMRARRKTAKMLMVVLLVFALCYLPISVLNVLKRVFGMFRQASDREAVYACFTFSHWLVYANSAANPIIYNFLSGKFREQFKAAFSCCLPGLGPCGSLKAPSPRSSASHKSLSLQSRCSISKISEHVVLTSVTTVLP
(Calcium flux is commonly read through the fluorescence of an indicator in the cells.)

Sequence of human orexin receptor 2 (O43614 whole entry): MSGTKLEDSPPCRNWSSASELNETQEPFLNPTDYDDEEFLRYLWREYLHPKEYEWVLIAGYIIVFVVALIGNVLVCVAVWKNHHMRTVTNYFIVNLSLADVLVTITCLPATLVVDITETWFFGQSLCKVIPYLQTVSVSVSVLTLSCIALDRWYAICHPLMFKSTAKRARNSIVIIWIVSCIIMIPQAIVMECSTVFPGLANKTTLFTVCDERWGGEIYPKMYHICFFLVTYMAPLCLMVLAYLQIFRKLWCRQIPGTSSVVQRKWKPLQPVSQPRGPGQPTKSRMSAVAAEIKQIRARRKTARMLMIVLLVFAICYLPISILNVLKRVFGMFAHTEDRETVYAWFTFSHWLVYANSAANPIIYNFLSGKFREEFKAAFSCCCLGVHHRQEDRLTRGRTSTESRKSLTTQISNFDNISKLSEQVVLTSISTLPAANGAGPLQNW

Consider `O=C(N[C@H]1CCC[C@@H]1Nc1nc2ccc(F)cc2s1)c1c(F)cccc1Cl` [Example 70, 2-Chloro-6-fluoro-N-[(1S,2S)-2-[(6-fluoro-1,3-benzothiazol-2-yl)amino]cyclopentyl]benzamide], for which the results for the IC50 in assay [1] and in assay [2] were > 10000 nM and 38 nM, respectively.
For the compound `Cc1ccc(-n2nccn2)c(C(=O)NC2CCCC2Cc2cnc3ccccc3n2)c1` (centres unmarked) [Example 63, 5-Methyl-N-[2-(quinoxalin-2-ylmethyl)cyclopentyl]-2-(2H-1,2,3-triazol-2-yl)benzamide], the IC50 in assay [1] was determined as 4200 nM; in assay [2] it was 48 nM.
The corresponding values for `O=C(N[C@H]1CCC[C@@H]1Nc1nc2c(F)cc(F)cc2s1)c1ccccc1-n1nccn1` [Example 93, N-[(1S,2S)-2-[(4,6-Difluoro-1,3-benzothiazol-2-yl)amino]cyclopentyl]-2-(2H-1,2,3-triazol-2-yl)benzamide] are 6200 nM and 14 nM.
The corresponding values for `O=C(NC1CC(F)(F)CC1Nc1nc2ccc(F)cc2s1)c1ccccc1-n1nccn1` (single isomer, unassigned) [Example 103, N-{4,4-Difluoro-2-[(6-fluoro-1,3-benzothiazol-2-yl)amino]cyclopentyl}-2-(2H-1,2,3-triazol-2-yl)benzamide] are 627 nM and 266 nM.
The corresponding values for `O=C(N[C@H]1CCC[C@@H]1Nc1nc2cccnc2s1)c1ccccc1-n1nccn1` [Example 95, N-[(1S,2S)-2-({[1,3]Thiazolo[5,4-b]pyridin-2-yl}amino)cyclopentyl]-2-(2H-1,2,3-triazol-2-yl)benzamide] are > 10000 nM and 41 nM.
Consider `COc1cccc(OC)c1C(=O)N[C@@H]1CCC[C@H]1Nc1nc2ccccc2o1` [Example 12, N-[(1R,2R)-2-[(1,3-Benzoxazol-2-yl)amino]cyclopentyl]-2,6-dimethoxy-benzamide], for which the concentration for half-maximal inhibition (IC50) was 3500 nM in assay [1] and 470 nM in assay [2].
As for `O=C(N[C@H]1CCC[C@@H]1Nc1nc2ccc(F)cc2s1)c1ccccc1-n1ccnn1` [Example 73, N-[(1S,2S)-2-[(6-Fluoro-1,3-benzothiazol-2-yl)amino]cyclopentyl]-2-(1H-1,2,3-triazol-1-yl)benzamide], the IC50 was > 10000 nM in assay [1] and 35 nM in assay [2].
The corresponding values for `COc1cccc(OC)c1C(=O)N[C@H]1CCC[C@H]1Nc1nc2ccccc2o1` [Example 7, N-[(1S,2R)-2-[(1,3-Benzoxazol-2-yl)amino]cyclopentyl]-2,6-dimethoxybenzamide] are 1900 nM and 26 nM.
For `COc1cccc(OC)c1C(=O)N[C@H]1CCC[C@@H]1Nc1nc2ccccc2s1` [Example 4, N-[(1S,2S)-2-[(1,3-Benzothiazol-2-yl)amino]cyclopentyl]-2,6-dimethoxybenzamide], in that order: > 10000 nM and 12 nM.
In the case of `COc1ccccc1C(=O)N(C)[C@H]1CCC[C@@H]1Nc1nc2ccc(F)cc2s1` [Example 77, N-[(1S,2S)-2-[(6-Fluoro-1,3-benzothiazol-2-yl)amino]cyclopentyl]-2-methoxy-N-methylbenzamide], the figures for the IC50 in assay [1] and in assay [2] were 1600 nM and 25 nM, respectively.
The corresponding values for `CN(C(=O)c1c(F)cccc1F)[C@H]1CCC[C@@H]1Nc1nc2ccc(F)cc2s1` [Example 76, 2,6-Difluoro-N-[(1S,2S)-2-[(6-fluoro-1,3-benzothiazol-2-yl)amino]cyclopentyl]-N-methylbenzamide] are 2500 nM and 23 nM.
For `COc1cccc(OC)c1C(=O)NC1CCCC1Cc1nc2ccc(Cl)cc2s1` (centres unmarked) [Example 32, N-{2-[(6-Chloro-1,3-benzothiazol-2-yl)methyl]cyclopentyl}-2,6-dimethoxybenzamide], in that order: 980 nM and 900 nM.
For `Cc1ccc(-n2nccn2)c(C(=O)NC2CCCC2Cc2ccc3ccccc3n2)c1` (single isomer, unassigned) [Example 62, 5-Methyl-N-[2-(quinolin-2-ylmethyl)cyclopentyl]-2-(2H-1,2,3-triazol-2-yl)benzamide], in that order: > 10000 nM and > 10000 nM.
`O=C(N[C@H]1CCC[C@@H]1Nc1nc2ccc(F)cc2s1)c1cc(F)ccc1-n1nccn1` [Example 36, 5-Fluoro-N-[(1S,2S)-2-[(6-fluoro-1,3-benzothiazol-2-yl)amino]cyclopentyl]-2-(2H-1,2,3-triazol-2-yl)benzamide]: the results for the IC50 in assay [1] and in assay [2] were 5400 nM and 8.3 nM, respectively.
The corresponding values for `O=C(N[C@H]1CCC[C@@H]1Nc1nc2ccc(F)cc2o1)c1ccccc1-n1nccn1` [Example 87, N-[(1S,2S)-2-[(6-Fluoro-1,3-benzoxazol-2-yl)amino]cyclopentyl]-2-(2H-1,2,3-triazol-2-yl)benzamide] are > 10000 nM and 21 nM.
Take `O=C(NC1CC(F)(F)CC1Nc1nc2ccc(F)cc2s1)c1ccccc1-n1nccn1` (single isomer, unassigned) [Example 104, N-{4,4-Difluoro-2-[(6-fluoro-1,3-benzothiazol-2-yl)amino]cyclopentyl}-2-(2H-1,2,3-triazol-2-yl)benzamide]: the 50% inhibitory concentration (IC50) in assay [1] is 4500 nM; in assay [2] it was 13 nM.
For `Cc1ccc(-n2nccn2)c(C(=O)N[C@H]2CCC[C@@H]2Nc2ccc3ccccc3n2)c1` [Example 20, 5-Methyl-N-[(1S,2S)-2-[(quinolin-2-yl)amino]cyclopentyl]-2-(2H-1,2,3-triazol-2-yl)benzamide], in that order: 4100 nM and 290 nM.
The corresponding values for `CN(C(=O)c1ccccc1-n1nccn1)[C@H]1CCC[C@@H]1Nc1nc2ccc(F)cc2s1` [Example 80, N-[(1S,2S)-2-[(6-Fluoro-1,3-benzothiazol-2-yl)amino]cyclopentyl]-N-methyl-2-(2H-1,2,3-triazol-2-yl)benzamide] are 650 nM and 1 nM.
For `COc1cccc(OC)c1C(=O)N[C@H]1CCC[C@@H]1Nc1nc2ccc(F)cc2o1` [Example 66, N-[(1S,2S)-2-[(6-Fluoro-1,3-benzoxazol-2-yl)amino]cyclopentyl]-2,6-dimethoxybenzamide], the results for the IC50 in assay [1] and in assay [2] were > 10000 nM and 50 nM, respectively.
Consider `CC1(Nc2nc3ccc(Cl)cc3s2)CCCC1NC(=O)c1ccccc1-n1nccn1` (centres unmarked) [Example 108, N-{2-[(6-Chloro-1,3-benzothiazol-2-yl)amino]-2-methylcyclopentyl}-2-(2H-1,2,3-triazol-2-yl)benzamide], for which the IC50 in assay [1] amounted to 186 nM; in assay [2] it was 13 nM.
Regarding `COc1cccc(OC)c1C(=O)NC1CCCC1Cc1ccc2ccccc2n1` (centres unmarked) [Example 29, 2,6-Dimethoxy-N-[2-(quinolin-2-ylmethyl)cyclopentyl]benzamide], the IC50 in assay [1] is 2900 nM; in assay [2], 550 nM.
For `CCOc1ccccc1C(=O)N[C@H]1CCC[C@@H]1Nc1nc2ccc(F)cc2s1` [Example 49, 2-Ethoxy-N-[(1S,2S)-2-[(6-fluoro-1,3-benzothiazol-2-yl)amino]cyclopentyl]-benzamide], in that order: 1400 nM and 190 nM.
With `Cc1noc(-c2ccccc2C(=O)N[C@H]2CCC[C@@H]2Nc2nc3ccc(F)cc3s2)n1` [Example 39, N-[(1S,2S)-2-[(6-Fluoro-1,3-benzothiazol-2-yl)amino]cyclopentyl]-2-(3-methyl-1,2,4-oxadiazol-5-yl)benzamide], the figures for the IC50 in assay [1] and in assay [2] were 3800 nM and 14 nM, respectively.
The corresponding values for `O=C(N[C@H]1CCC[C@@H]1Nc1nc2cc(F)ccc2o1)c1ccccc1-n1nccn1` [Example 88, N-[(1S,2S)-2-[(5-Fluoro-1,3-benzoxazol-2-yl)amino]cyclopentyl]-2-(2H-1,2,3-triazol-2-yl)benzamide] are 4200 nM and 21 nM.
In the case of `COc1ccc(OC)c(C(=O)N[C@H]2CCC[C@@H]2Nc2nc3ccc(F)cc3s2)c1` [Example 41, N-[(1S,2S)-2-[(6-Fluoro-1,3-benzothiazol-2-yl)amino]cyclopentyl]-2,5-dimethoxybenzamide], the concentration for half-maximal inhibition (IC50) in assay [1] stood at 2100 nM; in assay [2], 16 nM.
Turning to `COc1cccc(OC)c1C(=O)N[C@H]1CCC[C@@H]1Nc1nc2cc(F)ccc2s1` [Example 84, N-[(1S,2S)-2-[(5-Fluoro-1,3-benzothiazol-2-yl)amino]cyclopentyl]-2,6-dimethoxybenzamide], the IC50 in assay [1] was > 10000 nM; in assay [2] it was 45 nM.
For `O=C(NC1COCC1Nc1nc2ccc(F)cc2s1)c1ccccc1-n1nccn1` (single isomer, unassigned) [Example 101, trans-N-{4-[(6-Fluoro-1,3-benzothiazol-2-yl)amino]oxolan-3-yl}-2-(2H-1,2,3-triazol-2-yl)benzamide], in that order: 3800 nM and 730 nM.
For `COc1cccc(OC)c1C(=O)N[C@H]1CCC[C@H]1Nc1nc2ccc(Cl)cc2s1` [Example 15, N-[(1S,2R)-2-[(6-Chloro-1,3-benzothiazol-2-yl)amino]cyclopentyl]-2,6-dimethoxybenzamide], the half-maximal inhibitory concentration (IC50) in assay [1] amounted to 160 nM; in assay [2], 35 nM.
